Data published in patent US9144569B2, “Methods of administering an aromatase inhibitor, prostaglandin and GnRH for regulating ovulation in cattle” (UNIVERSITY OF SASKATCHEWAN, priority 2010, dated 2015).
Like-named read-outs stand apart in the source and are kept apart here.

What was measured:
plasma FSH = experiment: Example I: plasma FSH by double-antibody radioimmunoassay after single iv dose; format: in vivo, cattle; conditions: by 72 hours after single iv dose, doses combined; P<0.03
Protocol: Heifers in which a CL was detected during the initial examination were given […] cloprostenol (PGF, Estrumate™, Schering-Plough Animal Health, Pointe-Claire, QC, Canada) intramuscularly (im) to induce regression of the CL and to synchronize ovulation. Heifers were examined daily by transrectal ultrasonography to detect ovulation. Transvaginal ultrasound-guided follicular aspiration of follicles ≧5 mm was performed five to eight days after ovulation to synchronize wave emergence. Heifers were examined daily by transrectal ultrasonography to detect follicular wave emergence, which was expected 1 to 1.5 days after follicular ablation. […] For practical purposes, the dose of letrozole was calculated based on an average weight of 400 kg for all heifers. […]
Statistical analyses were done using the Statistical Analysis System software package (SAS Learning Edition 9.1, 2006; SAS Institute Inc., Cary, N.C., USA). Time-series hormone data, plasma letrozole concentration, and follicular diameter profiles were analyzed by repeated measures, using the PROC MIXED procedure. […]

plasma progesterone = experiment: Example III: plasma progesterone after letrozole IM; format: in vivo, cattle; conditions: 1 mg/kg IM; P<0.06
Protocol: (§1) Ovarian cyclicity in heifers was synchronized using transvaginal ultrasound-guided follicular ablation followed by a double dose of PGF 4 days after ablation. The ovaries were examined daily by transrectal ultrasonography to detect ovulation. Three days after ovulation, heifers were assigned randomly to four treatment groups and given letrozole at a dose of 1 mg/kg intravenously (in benzyl alcohol, n=10) or intramuscularly (in benzyl alcohol plus canola oil 1:1 v/v, n=10), or given a placebo intravenously (benzyl alcohol, n=5) or intramuscularly (benzyl alcohol plus canola oil 1:1 v/v, n=5). Ovarian structures were monitored by ultrasonography and blood samples were collected by jugular venipuncture twice daily from pre-treatment to post-treatment ovulations. Comparisons among groups were made by one-way ANOVA for single-point measurements and by ANOVA for repeated measures for time-series data.
(§2) Blood samples collected daily from treatment to post-treatment ovulation.
(§3) Endpoints are: Follicular diameter profiles; CL diameter profile; Circulating progesterone concentration; Circulating FSH and LH profiles; Letrozole profile and bioavailability; Circulating estradiol concentration Follicular fluid estradiol concentration).

plasma LH = experiment: Example III: plasma LH after letrozole IV or IM; format: in vivo, cattle; conditions: 1 mg/kg IV or IM vs placebo
Protocol: as §1, §2, §3

heifers = experiment: Example IV: intravaginal device containing 1 g letrozole in heifers, ovulation and ovarian structures; format: in vivo, cattle
Protocol: To test the hypothesis that letrozole treatment during the preovulatory stage, initiated prior to onset of follicular selection and prolonged for a 7-day period will be able to induce the development of more than one follicle to a preovulatory size and to delay the occurrence of ovulation. To develop a practical route of administration of letrozole in cattle.
Five to eight days after PGF-induced ovulation, FA was performed followed by a double dose of PGF 60 and 72 hr later. Heifers were randomly divided into two groups and received from Day 1 (Day 0=wave emergence) until Day 7 or until ovulation is detected: • intravaginal device containing 1 g of letrozole (n=15) • Intravaginal blank device (letrozole free, n=15)
Transrectal ultrasound examination and blood sample collection were performed daily from day of ablation until Day 12 post-ovulation. blood samples were collected frequently at the time of catheter placement, at 0, 10, 20, 30 min, 1, 1.5, 2, 3, 4, 6, 8, 12 and 24 hours post-treatment

[1] = cited from earlier work
circulating estradiol [2] = conditions: post-menopausal women [30]; cited from earlier work
circulating estradiol [3] = conditions: boars [56]; cited from earlier work

SMILES: N#Cc1ccc(C(c2ccc(C#N)cc2)n2cncn2)cc1 [Letrozole, letrozole]
- plasma FSH concentrations compared to controls (plasma FSH): lower
- plasma progesterone concentrations vs IM controls (plasma progesterone): tended to be higher
- plasma LH concentrations among groups (plasma LH): did not differ
- size of the ovulated dominant follicle (DF) (heifers): larger DF
- delay of ovulation (heifers; Day 1 to Day 7 of pre-ovulatory wave): 24 h
- half-life of letrozole ([1]; in humans [46]): approximately 2 days
- half-life of letrozole ([1]; in women [41, 61]): 48 h
- mean residence time ([1]; in women [41]): 59 h
- volume of distribution ([1]; in women [41]): 1.87 L/kg
- reduction in circulating estradiol concentrations (circulating estradiol [2]): 97-99%
- reduction in circulating estradiol concentrations (circulating estradiol [3]): 88%
